PubChem BioAssay (NCI)
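Tested at 5 concentrations; 48 h exposure; 96-well plates; endpoints linearly interpolated, else capped at highest concentration. GI50 marks 50% less growth. TGI: total growth inhibition.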

Columns and labels:
Assay in all cases: growth of human tumour cells (NCI), 48 h
K-562 leukemia = tested on: K-562 leukemia
SF-539 CNS = tested on: SF-539 CNS
HOP-92 NSCLC = tested on: HOP-92 NSCLC
SF-268 CNS = tested on: SF-268 CNS
CAKI-1 renal = tested on: CAKI-1 renal
OVCAR-5 ovarian = tested on: OVCAR-5 ovarian
HS 578T breast = tested on: HS 578T breast
SN12C renal = tested on: SN12C renal
SW-620 colon = tested on: SW-620 colon
NCI-H23 lung = tested on: NCI-H23 lung
UACC-257 melanoma = tested on: UACC-257 melanoma
SF-295 CNS = tested on: SF-295 CNS
RPMI-8226 leukemia = tested on: RPMI-8226 leukemia
UO-31 renal = tested on: UO-31 renal
SNB-19 CNS = tested on: SNB-19 CNS
ACHN renal = tested on: ACHN renal
MALME-3M melanoma = tested on: MALME-3M melanoma
PC-3 prostate = tested on: PC-3 prostate
MCF7 breast = tested on: MCF7 breast
SK-MEL-5 melanoma = tested on: SK-MEL-5 melanoma
COLO 205 colon = tested on: COLO 205 colon
HT29 colon = tested on: HT29 colon
SR leukemia = tested on: SR leukemia
SK-MEL-28 melanoma = tested on: SK-MEL-28 melanoma
786-0 renal = tested on: 786-0 renal
A549 NSCLC = tested on: A549 NSCLC
HCC-2998 colon = tested on: HCC-2998 colon
MDA-MB-231 breast = tested on: MDA-MB-231 breast
OVCAR-8 ovarian = tested on: OVCAR-8 ovarian
CCRF-CEM leukemia = tested on: CCRF-CEM leukemia
NCI/ADR-RES ovarian = tested on: NCI/ADR-RES ovarian
EKVX NSCLC = tested on: EKVX NSCLC
T-47D breast = tested on: T-47D breast
HCT-15 colon = tested on: HCT-15 colon
U251 CNS = tested on: U251 CNS
TK-10 renal = tested on: TK-10 renal
NCI-H226 lung = tested on: NCI-H226 lung
HCT-116 colon = tested on: HCT-116 colon
HL-60(TB) leukemia = tested on: HL-60(TB) leukemia
NCI-H460 lung = tested on: NCI-H460 lung
OVCAR-3 ovarian = tested on: OVCAR-3 ovarian
DU-145 prostate = tested on: DU-145 prostate
MDA-MB-435 = tested on: MDA-MB-435
M14 melanoma = tested on: M14 melanoma
SK-OV-3 ovarian = tested on: SK-OV-3 ovarian
SK-MEL-2 melanoma = tested on: SK-MEL-2 melanoma
NCI-H522 lung = tested on: NCI-H522 lung
RXF 393 renal = tested on: RXF 393 renal
KM12 colon = tested on: KM12 colon
BT-549 breast = tested on: BT-549 breast
UACC-62 melanoma = tested on: UACC-62 melanoma
MOLT-4 leukemia = tested on: MOLT-4 leukemia
SNB-75 CNS = tested on: SNB-75 CNS
OVCAR-4 ovarian = tested on: OVCAR-4 ovarian
LOX IMVI melanoma = tested on: LOX IMVI melanoma
A498 renal = tested on: A498 renal
HOP-62 NSCLC = tested on: HOP-62 NSCLC
IGROV1 ovarian = tested on: IGROV1 ovarian

## Cc1ccc2nc(-c3ccc(N(C)C)c(Br)c3)cn2c1
K-562 leukemia
  GI50: 2930 nM
  TGI: > 100 µM
SF-539 CNS
  GI50: 8.14 µM
  TGI: > 100 µM
HOP-92 NSCLC
  GI50: 44.4 µM
  TGI: > 100 µM
SF-268 CNS
  GI50: 8.09 µM
  TGI: > 100 µM
CAKI-1 renal
  GI50: > 100 µM
  TGI: > 100 µM
OVCAR-5 ovarian
  GI50: > 100 µM
  TGI: > 100 µM
HS 578T breast
  GI50: 25.3 µM
  TGI: > 100 µM
SN12C renal
  GI50: > 100 µM
  TGI: > 100 µM
SW-620 colon
  GI50: 42.3 µM
  TGI: > 100 µM
NCI-H23 lung
  GI50: > 100 µM
  TGI: > 100 µM
UACC-257 melanoma
  GI50: > 100 µM
  TGI: > 100 µM
SF-295 CNS
  GI50: > 100 µM
  TGI: > 100 µM
RPMI-8226 leukemia
  GI50: 3.93 µM
  TGI: > 100 µM
UO-31 renal
  GI50: > 100 µM
  TGI: > 100 µM
SNB-19 CNS
  GI50: 64.4 µM
  TGI: > 100 µM
ACHN renal
  GI50: > 100 µM
  TGI: > 100 µM
MALME-3M melanoma
  GI50: > 100 µM
  TGI: > 100 µM
PC-3 prostate
  GI50: 5.69 µM
  TGI: > 100 µM
MCF7 breast
  GI50: 27.8 µM
  TGI: > 100 µM
SK-MEL-5 melanoma
  GI50: 5.78 µM
  TGI: > 100 µM
COLO 205 colon
  GI50: > 100 µM
  TGI: > 100 µM
HT29 colon
  GI50: 7.02 µM
  TGI: > 100 µM
SR leukemia
  GI50: 1460 nM
  TGI: > 100 µM
SK-MEL-28 melanoma
  GI50: 10.5 µM
  TGI: > 100 µM
786-0 renal
  GI50: > 100 µM
  TGI: > 100 µM
A549 NSCLC
  GI50: > 100 µM
  TGI: > 100 µM
HCC-2998 colon
  GI50: > 100 µM
  TGI: > 100 µM
MDA-MB-231 breast
  GI50: > 100 µM
  TGI: > 100 µM
OVCAR-8 ovarian
  GI50: 17.4 µM
  TGI: > 100 µM
CCRF-CEM leukemia
  GI50: 6.52 µM
  TGI: > 100 µM
NCI/ADR-RES ovarian
  GI50: > 100 µM
  TGI: > 100 µM
EKVX NSCLC
  GI50: > 100 µM
  TGI: > 100 µM
T-47D breast
  GI50: > 100 µM
  TGI: > 100 µM
HCT-15 colon
  GI50: 4.19 µM
  TGI: > 100 µM
U251 CNS
  GI50: 7.19 µM
  TGI: > 100 µM
TK-10 renal
  GI50: > 100 µM
  TGI: > 100 µM
NCI-H226 lung
  GI50: > 100 µM
  TGI: > 100 µM
HCT-116 colon
  GI50: 7.13 µM
  TGI: > 100 µM
HL-60(TB) leukemia
  GI50: 1610 nM
  TGI: > 100 µM
NCI-H460 lung
  GI50: 4.18 µM
  TGI: > 100 µM
OVCAR-3 ovarian
  GI50: > 100 µM
  TGI: > 100 µM
DU-145 prostate
  GI50: > 100 µM
  TGI: > 100 µM
MDA-MB-435
  GI50: 22.6 µM
  TGI: > 100 µM
M14 melanoma
  GI50: > 100 µM
  TGI: > 100 µM
SK-OV-3 ovarian
  GI50: > 100 µM
  TGI: > 100 µM
SK-MEL-2 melanoma
  GI50: > 100 µM
  TGI: > 100 µM
NCI-H522 lung
  GI50: > 100 µM
  TGI: > 100 µM
RXF 393 renal
  GI50: > 100 µM
  TGI: > 100 µM
KM12 colon
  GI50: 54.1 µM
  TGI: > 100 µM
BT-549 breast
  GI50: 63.3 µM
  TGI: > 100 µM
UACC-62 melanoma
  GI50: > 100 µM
  TGI: > 100 µM
MOLT-4 leukemia
  GI50: 3.99 µM
  TGI: > 100 µM
SNB-75 CNS
  GI50: 31.3 µM
  TGI: > 100 µM
OVCAR-4 ovarian
  GI50: > 100 µM
  TGI: > 100 µM
LOX IMVI melanoma
  GI50: 35.2 µM
  TGI: > 100 µM
A498 renal
  GI50: > 100 µM
  TGI: > 100 µM
HOP-62 NSCLC
  GI50: > 100 µM
  TGI: > 100 µM

## Cn1c(=O)c2c(nc3n(Cc4ccccc4)c(=O)c(NCCCBr)cn23)n(C)c1=O
K-562 leukemia
  TGI: > 100 µM
HOP-92 NSCLC
  TGI: 58.5 µM
SF-268 CNS
  TGI: > 100 µM
CAKI-1 renal
  TGI: > 100 µM
OVCAR-5 ovarian
  TGI: > 100 µM
HS 578T breast
  TGI: > 100 µM
SN12C renal
  TGI: > 100 µM
SW-620 colon
  TGI: > 100 µM
NCI-H23 lung
  TGI: > 100 µM
UACC-257 melanoma
  TGI: > 100 µM
SF-295 CNS
  TGI: > 100 µM
RPMI-8226 leukemia
  TGI: > 100 µM
UO-31 renal
  TGI: > 100 µM
SNB-19 CNS
  TGI: > 100 µM
ACHN renal
  TGI: > 100 µM
PC-3 prostate
  TGI: > 100 µM
MCF7 breast
  TGI: > 100 µM
SK-MEL-5 melanoma
  TGI: > 100 µM
COLO 205 colon
  TGI: > 100 µM
HT29 colon
  TGI: > 100 µM
SR leukemia
  TGI: > 100 µM
SK-MEL-28 melanoma
  TGI: > 100 µM
786-0 renal
  TGI: > 100 µM
A549 NSCLC
  TGI: > 100 µM
HCC-2998 colon
  TGI: > 100 µM
MDA-MB-231 breast
  TGI: > 100 µM
OVCAR-8 ovarian
  TGI: > 100 µM
CCRF-CEM leukemia
  TGI: > 100 µM
NCI/ADR-RES ovarian
  TGI: > 100 µM
EKVX NSCLC
  TGI: > 100 µM
T-47D breast
  TGI: > 100 µM
HCT-15 colon
  TGI: > 100 µM
U251 CNS
  TGI: > 100 µM
TK-10 renal
  TGI: > 100 µM
NCI-H226 lung
  TGI: > 100 µM
HCT-116 colon
  TGI: > 100 µM
HL-60(TB) leukemia
  TGI: > 100 µM
NCI-H460 lung
  TGI: > 100 µM
OVCAR-3 ovarian
  TGI: > 100 µM
IGROV1 ovarian
  TGI: > 100 µM
DU-145 prostate
  TGI: > 100 µM
MDA-MB-435
  TGI: > 100 µM
M14 melanoma
  TGI: > 100 µM
SK-OV-3 ovarian
  TGI: 97.3 µM
SK-MEL-2 melanoma
  TGI: > 100 µM
NCI-H522 lung
  TGI: > 100 µM
RXF 393 renal
  TGI: > 100 µM
KM12 colon
  TGI: > 100 µM
BT-549 breast
  TGI: > 100 µM
UACC-62 melanoma
  TGI: > 100 µM
MOLT-4 leukemia
  TGI: > 100 µM
SNB-75 CNS
  TGI: 97.7 µM
OVCAR-4 ovarian
  TGI: > 100 µM
LOX IMVI melanoma
  TGI: > 100 µM
A498 renal
  TGI: > 100 µM
HOP-62 NSCLC
  TGI: > 100 µM
